Patent US20170067909A1, “ASSAY-READY RECOMBINANT CELLS TRANSIENTLY OVEREXPRESSING GENES ENCODING DRUG TRANSPORTER PROTEINS AND/OR DRUG METABOLIZING ENZYMES” (Corning Incorporated, priority 2012, published 2017)
Numbering of substitutions follows the chain as printed.

Columns and labels:
OATP1B1*5 = biological target: T1, OATP1B1*5 (Homo sapiens, UniProt Q9Y6L6, V174A); assay: OATP1B1 single nucleotide polymorphism panel uptake assay, OATP1B1*5 HEK-293 cells
T1 sequence (Q9Y6L6 1-691 V174A): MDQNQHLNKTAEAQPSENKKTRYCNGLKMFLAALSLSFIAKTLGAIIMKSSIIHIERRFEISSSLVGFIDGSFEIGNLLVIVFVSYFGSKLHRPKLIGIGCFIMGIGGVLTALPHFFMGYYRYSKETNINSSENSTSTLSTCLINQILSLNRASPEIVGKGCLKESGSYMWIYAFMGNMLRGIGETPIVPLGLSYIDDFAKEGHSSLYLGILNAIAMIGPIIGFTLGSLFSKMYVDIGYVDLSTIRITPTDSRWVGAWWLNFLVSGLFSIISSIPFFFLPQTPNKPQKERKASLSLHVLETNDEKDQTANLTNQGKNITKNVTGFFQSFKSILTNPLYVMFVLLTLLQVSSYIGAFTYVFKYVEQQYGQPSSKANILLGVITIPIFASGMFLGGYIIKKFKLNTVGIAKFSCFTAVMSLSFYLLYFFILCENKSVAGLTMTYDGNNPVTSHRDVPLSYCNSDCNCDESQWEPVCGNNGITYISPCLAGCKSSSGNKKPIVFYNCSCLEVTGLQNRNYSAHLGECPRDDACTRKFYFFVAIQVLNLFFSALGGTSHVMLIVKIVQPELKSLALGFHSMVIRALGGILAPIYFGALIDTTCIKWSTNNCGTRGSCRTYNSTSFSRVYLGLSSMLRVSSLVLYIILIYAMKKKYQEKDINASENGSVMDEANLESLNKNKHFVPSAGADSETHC

[1] = biological target: T2, Organic Anion-Transporting Polypeptide 1B1 (Homo sapiens, UniProt Q9Y6L6); assay: Suspension assay, vacuum manifold, Corning TransportoCells OATP1B1*1a; format: in vitro ADME; details: 5× substrate solution containing 25 μM, 10 minutes at 37° C., 600 k cells/well
T2 construct: host or cells: HEK293 cells, gene delivered by electroporation
T2 sequence (Q9Y6L6 1-691): T1 sequence (Q9Y6L6 1-691 V174A) with A174V
Description: In this experiment, a suspension assay for characterizing the activity of a drug transporter protein in cryopreserved, Corning® TransportoCells™ was developed. More specifically, the use of a centrifugation method versus a vacuum manifold for separating unreacted substrate in characterizing the activity of Organic Anion-Transporting Polypeptide 1B1 was investigated. Corning® TransportoCells™ transiently transfected with the gene OATP1B1*1a were obtained from Corning Life Sciences (Cat. No. 354859). In the Corning® TransportoCells™, the gene OATP1B1*1a was delivered into HEK293 cells via electroporation and the HEK293 cells were recovered and cryopreserved 1 hour post-electroporation. In order to obtain suitable expression of the Organic Anion-Transporting Polypeptide 1B1 encoded by OATP1B1*1a, the Corning® TransportoCells™ were thawed, cultured, and harvested.
The cells were cultured in T-175 Vented-Cap Culture Flasks with Poly-D-Lysine (hereinafter, “PDL”; available from Corning Life Sciences, Cat. No. 354539) with plating medium for 48 hours at 37° C. and 8% CO2. The plating medium is detailed in Table 16. After 24 hours, sodium butyrate (obtained from Sigma) was added to the cells to reach final 5 mM. After 48 hours, the cells were rinsed twice with Phosphate-Buffered Saline (hereinafter, “PBS”, obtained from Corning).
The cells were then harvested with 0.05% Trypsin (obtained from Sigma) and washed once with Hank's Balanced Salt Solution (hereinafter, “HBSS”) buffer (with Ca^2+ and Mg^2+, obtained from Corning). Then, the cells were resuspended in HBSS (obtained from Corning) to a final cell density of 3×10^6 cells/ml. […]
Then, the cells were transferred to FiltrEX™ 96 Well Filter Plates with 0.66 mm Thick Glass Fiber Filter (available from Corning Life Sciences, Cat. No. 3511) and a vacuum was applied. […] The cell lysis was then subjected to the appropriate protein analysis and/or fluorescence analysis to characterize the activity of Organic Anion-Transporting Polypeptide 1B1.

| Compound | uptake activity / transport compared to OATP1B1*1a cells (in words) (OATP1B1*5) | Uptake Activity OATP1B1 [1] [pmol/mg/min] | Uptake Ratio [1] |
| --- | --- | --- | --- |
| C[C@]12CC[C@@H]3c4ccc(O)cc4CC[C@H]3[C@@H]1CC[C@@H]2O[C@@H]1O[C@H](C(=O)O)[C@@H](O)[C@H](O)[C@H]1O [E17βG] | Significantly impaired transport | 2.19 | – |
| fluorescein methotrexate [FMTX] | Significantly impaired transport | 0.46 | 6.8 |
